Test results from article PMC8803746, “Two experts and a newbie: [^18F]PARPi vs [^18F]FTT vs [^18F]FPyPARP—a comparison of PARP imaging agents” (European Journal of Nuclear Medicine and Molecular Imaging, 2021).
Values joined by “and” are separate entries in the source; they are usually repeats but may differ in a detail not shown here. Equal entries are not always repeated. Where two headings read alike, the source gives them in different places.

Legend:
[1] = Experimental logP and logD determination (1-octanol/water or PBS, gamma counter); assay type: physicochemical; settings: experimentally determined; for logD: 1-octanol/PBS; for logP: 1-octanol/water
Procedure: One microliter radiotracer solution (0.4 MBq) was added to a mixture of 500 µl water or PBS and 500 µl 1-octanol. After thorough shaking, the suspension was shortly centrifuged for phase separation, samples were drawn from each phase, and radioactivity concentration was measured in a gamma counter (WIZARD2, PerkinElmer, Waltham, MA, USA).

HCC1937 cells = assay: In vitro radiotracer uptake, acid wash; assay type: cell-based, human; settings: glycine-HCl in PBS 50 mM pH 2.8 vs medium
Procedure: For the acid wash, cells were distributed in 96-well filter plates as described before and incubated with the radiotracer solution for 30 min at 37 °C. After an initial wash with 100 µl medium, cells were either washed twice (1: 100 µl, 2: 200 µl) with medium or with glycine–HCl in PBS (50 mM, pH 2.8) followed by a final wash with 200 µl medium and measured in a gamma counter.

HCC1937 xenografts = assay: PET/MR imaging and ex vivo biodistribution in xenograft-bearing mice; design: species or system NOD.CB17-Prkdc^scid/J mice; settings: for Xenograft uptake (TACs from dynamic PET): 1-h dynamic PET; for tumor-to-blood ratio (TBR) / tumor-to-muscle ratio (TMR): ex vivo biodistribution; for tumor-to-blood ratio (TBR) / tumor-to-muscle ratio (TMR) / liver-to-kidney ratio (LKR): mean value; for Renal clearance / bladder uptake in PET images: i.v., dynamic PET, minutes 50-60
Procedure: (§1) All animal experiments were performed according to the German animal welfare act and approved by the local authorities (Regierungspräsidium Tübingen, R3/18). Animals were housed in individually ventilated cages (IVCs, 5 mice per cage) with bedding and enrichment, and food and water was provided ad libitum. Animals were kept under isoflurane anesthetic (1.5% in pure oxygen, 1.5 l/min) during the experiments. In 1:1 ice-cold Matrigel (Thermo Scientific)/PBS, 1 × 10^7 cells were injected subcutaneously in the right shoulder area of 7-week-old female NOD.CB17-Prkdc^scid/J mice (n = 10 per tracer). After the xenografts reached a suitable size (302 ± 152 mm^3), mice were injected with 12.45 ± 0.87 MBq, 12.68 ± 0.39 MBq, and 12.94 ± 0.45 MBq, respectively, of [^18F]PARPi, [^18F]FPyPARP, and [^18F]FTT and subjected to 1-h dynamic (n = 7 per tracer) or 10-min static (n = 3 per tracer, 1-h resting uptake) PET imaging (Inveon D-PET, Siemens, Knoxville, TN, USA) with subsequent magnetic resonance (MR) anatomical scans using a 7-T Biospec 70/30 USR (Clinscan, Bruker Biospin MRI GmbH) and a T2-weighted spin echo sequence. Five mice of each dynamically acquired group underwent a second, 10-min static PET scan 2-h post-injection (p.i.). Mice were sacrificed by cervical dislocation, the collected organs were weighed, and the tissue uptake was determined by gamma-counting (WIZARD2). Liver and kidney tissue was frozen in Tissue-Tek (Labtech, East Sussex, Britain) and 20-µm slices were prepared for autoradiography. A storage phosphor screen (Molecular Dynamics, Caesarea, Israel) was exposed to the sections for 18 h and scanned at a resolution of 100 µm/px with a STORM phosphor imager (Molecular Dynamics). PET image reconstruction and correlation with MR images was performed with Inveon Acquisition Workplace and Inveon Research Workplace, respectively, using a user-defined dynamic framing and an ordered subset expectation maximization (OSEM3D) algorithm. Regions of interest (ROIs) were drawn according to the acquired MR images and co-registered with the PET data to obtain time-activity curves (TACs).
Statistical analyses are represented as mean values ± standard deviation. Analyses were performed using GraphPad Prism 9 and non-parametric t tests (comparison of two groups) and one-way ANOVA (comparison of more than two groups). Blood half-life was calculated using a two-phase decay fit in GraphPad Prism 8. p values < 0.05 were considered statistically significant according to the software (*p < 0.05, **p < 0.01, ***p < 0.001, ****p < 0.0001).

[2] = Blood half-life, two-phase decay fit; assay type: in vivo, NOD.CB17-Prkdc^scid/J mice; settings: calculated with two-phase decay fit
Procedure: as §1, with “PET image reconstruction and correlation with MR images was performed with Inveon Acquisition Workplace and Inveon Research Workplace, respectively, using a user-defined dynamic framing and an ordered subset expectation maximization (OSEM3D) algorithm. Regions of interest (ROIs) were drawn according to the acquired MR images and co-registered with the PET data to obtain time-activity curves (TACs).” left out
Statistical analyses are represented as mean values ± standard deviation. […] Blood half-life was calculated using a two-phase decay fit in GraphPad Prism 8. p values < 0.05 were considered statistically significant according to the software (*p < 0.05, **p < 0.01, ***p < 0.001, ****p < 0.0001).

[3] = Serum stability analysis in mouse serum; assay type: in vitro ADME; settings: C57BL/6 J mouse serum, 37 °C, over 240 min, HPLC
Procedure: (§2) Serum stability was assessed by mixing [^18F]FPyPARP solution 1:1 with C57BL/6 J mouse or human (blood type AB + , Sigma-Aldrich, Steinheim, Germany) serum. After 0-, 30-, 60-, 120-, and 240-min incubation at 37 °C, samples were drawn and the proteins were precipitated by adding ice-cold MeCN to a final concentration of 50%. The supernatant after centrifugation (12,100 × g, 90 s) was analyzed by HPLC as described for radiotracer quality control.

[4] = Serum stability analysis in human serum; assay type: in vitro ADME; settings: 37 °C, over 240 min, HPLC
Procedure: as §2

[5] = design: method as in Lynparza monograph, AstraZeneca; settings: reported value; ref Lynparza monograph, AstraZeneca; cited from earlier work
[6] = tested on: ABCB1 (encoding MDR1 P-glycoprotein); design: method as in PMID 24700236; settings: cited from earlier work
[7] = design: method as in PMID 30389822; settings: cited from earlier work
[8] = design: method as in PMID 30389822; settings: cited from earlier work; remark: listed apart in the source
[9] = design: method as in PMID 32245901; settings: cited from earlier work

SMILES	logD [1]	logP [1]	Blood half-life [2] [min]	liver-to-kidney ratio (LKR) (HCC1937 xenografts; 2.5 h p.i.)	Radiotracer uptake after acidic wash compared to medium wash (HCC1937 cells)	Xenograft uptake (TACs from dynamic PET) (HCC1937 xenografts)	tumor-to-blood ratio (TBR) (HCC1937 xenografts; 2.5 h p.i.)	tumor-to-muscle ratio (TMR) (HCC1937 xenografts; 2.5 h p.i.)	Renal clearance / bladder uptake in PET images (HCC1937 xenografts)	tumor-to-muscle ratio (TMR) (HCC1937 xenografts; 1.5 h p.i.)	further results
O=C(c1cc(Cc2n[nH]c(=O)c3ccccc23)ccc1F)N1CCN(C(=O)C2CC2)CC1 [olaparib]	–	–	–	–	–	–	–	–	–	–	logD [5]: 1.49; Efflux transporter substrate [6]: efflux transporter of olaparib
O=C(c1cc(Cc2n[nH]c(=O)c3ccccc23)ccc1[18F])N1CCN(C(=O)C2CC2)CC1 [[^18F]olaparib]	–	–	–	–	–	–	–	–	–	–	calculated logP [7]: 2.02; Clearance route [8]: only shows hepatobiliary clearance
O=C(c1ccc([18F])cc1)N1CCN(C(=O)c2cc(Cc3n[nH]c(=O)c4ccccc34)ccc2F)CC1 [[^18F]PARPi]	2.09	2.09	3 ± 0.7	1.37	significantly higher uptake	within the same range	3.41 ± 0.83	–	some of the animals showed renal excretion	5.3	Time of first appearance of a radiometabolite ([9]; first-in-human clinical studies): 25 min; Renal clearance ([9]; in humans): 30%

The next lines start with results.

logD [1]	logP [1]	Blood half-life [2] [min]	liver-to-kidney ratio (LKR) (HCC1937 xenografts; 2.5 h p.i.)	SMILES	Radiotracer uptake after acidic wash compared to medium wash (HCC1937 cells)	Xenograft uptake (TACs from dynamic PET) (HCC1937 xenografts)	tumor-to-blood ratio (TBR) (HCC1937 xenografts; 2.5 h p.i.)	tumor-to-muscle ratio (TMR) (HCC1937 xenografts; 2.5 h p.i.)	Renal clearance / bladder uptake in PET images (HCC1937 xenografts)	tumor-to-muscle ratio (TMR) (HCC1937 xenografts; 1.5 h p.i.)	further results
1.94	1.1	2.1 ± 0.5	–	O=C1NCCn2c(-c3ccc(OCC[18F])cc3)nc3cccc1c32 [[^18F]FTT]	No difference	higher overall xenograft uptake	2.46 ± 0.35 and 2.46	3.42	no noticeable renal clearance	–	tumor-to-liver ratio (TLR) (HCC1937 xenografts; 1.5 h and 2.5 h p.i.): significantly higher at both time points
1.16	1.16	2.6 ± 1.4	0.60	O=C(c1ccc(F)nc1)N1CCN(C(=O)c2cc(Cc3n[nH]c(=O)c4ccccc34)ccc2F)CC1 [[^18F]FPyPARP, 4-(4-Fluoro-3-(4-(6-fluoronicotinoyl)piperazine-1-carbonyl)benzyl)phthalazine-1(2H)-one]	No difference	within the same range	3.99 ± 0.99 and 3.99	2.46	all animals exhibiting strong radioactive signal in the bladder	1.99	Serum stability [3]: no significant radiometabolites and good radiotracer stability over 240 min; Serum stability [4]: no significant radiometabolites and good radiotracer stability over 240 min; Change of liver-to-kidney ratio between the 1.5 and 2.5 h time points (HCC1937 xenografts; 1.5 h vs 2.5 h p.i.): decreased; Liver uptake (TACs) (HCC1937 xenografts; early time points, in direct comparison to [^18F]PARPi): lower uptake values
